For test [1], the target named is Cdc7 (Homo sapiens, UniProt O00311). Kind of test: Cdc7 cell pharmacodynamics assay Method 1: pS53MCM2 levels in HCT116 cells. The note with it: 6 hours treatment, read-out: Biomarker Method 1 (pEC50) (converted). Set-up: endogenous in cells. The class given is cell-based. The procedure, abridged:
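HCT116 cells (wild-type p53), 20,000/well, treated with compound for 6 h at 37 °C. Lysates captured on total-MCM2 antibody plates, then probed with anti-pMCM2 Ser53 and HRP secondary; chemiluminescent sandwich ELISA readout of pS53MCM2 levels.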

In test [2] the target is Cdc7/Dbf4 (Homo sapiens, UniProt O00311). Kind of test: Cdc7 biochemical assay Method 2: Cdc7/Dbf4 Enzyme TR-FRET Assay measuring pS40MCM2. Particulars: pS40 MCM2 peptide, 1 μM ATP, 25° C., 120 minutes, read-out: Biochemical Method 2 (pIC50) (converted). Here is the method:
This protocol describes a method for assaying a compounds' ability to inhibit Cdc7 activity by measuring pS40MCM2 levels in a Cdc7/Dbf4 Enzyme TR-FRET Assay.
2.5 nM Cdc7/Dbf4 was incubated with 100 nM of biotin-labelled peptide 35-TDALTS(pS)PGRDLP in the presence of 1 μM ATP at 25° C. for 120 minutes. The phosphorylation of the peptide was detected using TR-FRET. Anti-Mcm2 (pS40) antibody, Terbium anti-rabbit secondary antibody and Streptavidin-Alexa Fluor488 form the detection system.
Background: In TR-FRET formats the signal depends on donor and acceptor labels being close together.

Chain of Cdc7 (O00311 whole entry): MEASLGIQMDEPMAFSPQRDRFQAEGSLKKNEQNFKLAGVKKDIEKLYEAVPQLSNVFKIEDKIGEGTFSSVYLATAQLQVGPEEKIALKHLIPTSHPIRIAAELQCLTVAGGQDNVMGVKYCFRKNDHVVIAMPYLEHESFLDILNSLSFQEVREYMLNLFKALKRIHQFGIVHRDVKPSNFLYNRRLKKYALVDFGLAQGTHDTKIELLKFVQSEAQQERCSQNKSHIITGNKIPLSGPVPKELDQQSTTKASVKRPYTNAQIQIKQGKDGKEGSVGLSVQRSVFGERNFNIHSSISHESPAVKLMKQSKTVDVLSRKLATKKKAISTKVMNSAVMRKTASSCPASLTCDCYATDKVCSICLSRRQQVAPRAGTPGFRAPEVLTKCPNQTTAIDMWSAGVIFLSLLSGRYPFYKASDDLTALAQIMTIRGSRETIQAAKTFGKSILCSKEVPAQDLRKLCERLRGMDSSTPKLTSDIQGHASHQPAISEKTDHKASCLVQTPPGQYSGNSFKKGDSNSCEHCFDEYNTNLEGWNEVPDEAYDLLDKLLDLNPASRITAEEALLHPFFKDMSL
Chain of Cdc7 (Q9UBU7 whole entry partner): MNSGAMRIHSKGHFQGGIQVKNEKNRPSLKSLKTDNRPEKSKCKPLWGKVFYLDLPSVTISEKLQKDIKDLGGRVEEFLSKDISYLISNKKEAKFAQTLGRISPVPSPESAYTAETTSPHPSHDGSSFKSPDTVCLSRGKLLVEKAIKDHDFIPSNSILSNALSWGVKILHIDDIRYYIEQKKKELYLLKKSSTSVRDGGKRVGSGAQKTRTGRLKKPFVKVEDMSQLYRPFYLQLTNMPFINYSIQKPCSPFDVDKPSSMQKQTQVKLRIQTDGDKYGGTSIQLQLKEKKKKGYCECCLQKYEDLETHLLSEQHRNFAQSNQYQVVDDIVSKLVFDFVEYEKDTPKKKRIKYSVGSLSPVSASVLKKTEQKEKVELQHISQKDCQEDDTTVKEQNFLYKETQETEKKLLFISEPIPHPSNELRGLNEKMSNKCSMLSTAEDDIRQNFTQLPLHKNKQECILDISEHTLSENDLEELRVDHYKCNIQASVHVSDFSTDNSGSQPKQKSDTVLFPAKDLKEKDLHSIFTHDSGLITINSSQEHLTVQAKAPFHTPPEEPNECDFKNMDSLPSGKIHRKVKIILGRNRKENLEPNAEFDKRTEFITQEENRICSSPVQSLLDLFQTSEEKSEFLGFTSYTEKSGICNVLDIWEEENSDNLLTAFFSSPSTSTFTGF
Chain of Cdc7/Dbf4 (O00311 whole entry): as the sequence (O00311 whole entry) above
Chain of Cdc7/Dbf4 (Q9UBU7 whole entry partner): as the sequence (Q9UBU7 whole entry partner) above

On to `O=c1[nH]c(-c2scnc2Cl)nc(C2CCOCC2)c1Cl` [Compound 4, 5-chloro-2-(4-chlorothiazol-5-yl)-4-tetrahydropyran-4-yl-1H-pyrimidin-6-one], for which the EC50 in test [1] was 45.7 nM. `Cc1ncsc1-c1nc(C2CCOCC2)c(Cl)c(=O)[nH]1` [Compound 6, 5-chloro-2-(4-methylthiazol-5-yl)-4-tetrahydropyran-4-yl-1H-pyrimidin-6-one]: the IC50 in test [2] is 1.95 nM. Besides, in test [1], the EC50 was 107 nM. Regarding `O=c1[nH]c(-c2scnc2C(F)(F)F)nc(C2CCOCC2)c1Cl` [Compound 14, 5-chloro-4-tetrahydropyran-4-yl-2-[4-(trifluoromethyl)thiazol-5-yl]-1H-pyrimidin-6-one], in test [1], the EC50 was 158 nM. Turning to `O=c1[nH]c(-c2cn[nH]c2C(F)(F)F)nc(C2CCOCC2)c1Cl` [Compound 17, 5-chloro-4-tetrahydropyran-4-yl-2-[5-(trifluoromethyl)-1H-pyrazol-4-yl]-1H-pyrimidin-6-one], the IC50 in test [2] is 1.45 nM. The EC50 in test [1] was 112 nM. For the molecule `Cc1ncsc1-c1nc(N2CCN[C@@H](C(F)(F)F)C2)c(Cl)c(=O)[nH]1` [Compound 28, 5-chloro-2-(4-methylthiazol-5-yl)-4-[(3R)-3-(trifluoromethyl)piperazin-1-yl]-1H-pyrimidin-6-one], the EC50 in test [1] was 45.7 nM. Consider `C[C@@H]1COCCN1c1nc(-c2cn[nH]c2C(F)(F)F)[nH]c(=O)c1Cl` [Compound 41, 5-chloro-4-[(3R)-3-methylmorpholin-4-yl]-2-[5-(trifluoromethyl)-1H-pyrazol-4-yl]-1H-pyrimidin-6-one], for which the IC50 in test [2] was 0.832 nM. Same read-out and setting: for `C[C@@H]1CNCCN1c1nc(-c2cn[nH]c2Cl)[nH]c(=O)c1Cl` [Compound 43, 5-chloro-2-(5-chloro-1H-pyrazol-4-yl)-4-[(2R)-2-methylpiperazin-1-yl]-1H-pyrimidin-6-one] the value was 1.82 nM; for `C[C@@H]1CNCCN1c1nc(-c2cn[nH]c2C(F)(F)F)[nH]c(=O)c1Cl` [Compound 44, 5-chloro-4-[(2R)-2-methylpiperazin-1-yl]-2-[5-(trifluoromethyl)-1H-pyrazol-4-yl]-1H-pyrimidin-6-one], 2.69 nM.

The values above are taken from patent US11766434B2, “Pyrimidinone derivatives as CDC7 inhibitors” (Cancer Research Technology Limited, priority 2016, dated 2023).
